According to patent publication US10626136B2, “Compositions and methods for improving Rebaudioside X solubility” (The Coca-Cola Company, priority 2012, dated 2020):

Key:
Type in all cases: physicochemical
[1] = Approximate water solubility by solvent addition method (aliquots of water, visual inspection)
Experimental: The approximate aqueous solubility can be determined by a solvent addition method in which a weighed sample is treated with aliquots of water. The mixture is generally vortexed and/or sonicated between additions to facilitate dissolution. Complete dissolution of the test material is determined by visual inspection. Solubility is estimated based on the total solvent used to provide complete dissolution.
The approximate water solubility of Form A and amorphous Rebaudioside X were determined by a solvent addition method in which a weighed sample was treated with aliquots of water. The mixture was generally vortexed and/or sonicated between additions to facilitate dissolution. Complete dissolution of the test material was determined by visual inspection. Solubility was estimated based on the total solvent used to provide complete dissolution. The actual solubility may be greater than the value calculated because of the use of solvent aliquots that were too large or due to a slow rate of dissolution.
The approximate solubility of the complexes was measured by a solvent addition method in which a weighed sample was treated with aliquots of water. The mixture was generally vortexed and/or sonicated between additions to facilitate dissolution. Complete dissolution of the test material was determined by visual inspection. Solubility was estimated based on the total solvent used to provide complete dissolution. The actual solubility may be greater than the value calculated because of the use of solvent aliquots that were too large or due to a slow rate of dissolution.

[2] = Water solubility of material before and after the water process (Example 4); conditions: Example 4, before and after heating to 121° C. in water and spray drying
[3] = Duration of clarity of aqueous solutions, with or without filtration
Description: The water solubility of amorphous Rebaudioside X prepared according to Example 4 was compared in various test material/water ratios with or without filtration prior to solubility determination. Generally, filtration performed after dissolution of sample assist the duration of clarity of the sample (or delays the precipitation/recrystallization of sample).

[4] = Equilibrium solubility in water by UV (205 nm)
Experimental: Samples were analyzed with a Cary 50 UV-Vis dual beam spectrophotometer. The detector was zeroed with a cuvette filled with water prior to sample analysis. Samples were analyzed at room temperature in 1.0 cm quartz cuvette using a scan rate of 600 nm/min in a range of 200-400 nm.
25.8 mg of amorphous Rebaudioside X was added to a 10-mL volumetric flask and dissolved 10 mL with water. This stock solution was diluted to five concentration levels for UV measurement.
A calibration curve at 205 nm was established (Abs at 205 nm vs. concentration) to provide the equation y=5.0625x+0.0022. R^2 was 0.9999. This equation was used for the subsequent determination of Rebaudioside X concentrations.
250 mg of amorphous Rebaudioside X was added to an amber vial and 10 mL of water was added. The mixture was stirred at room temperature about 10 minutes to yield a transparent solution with only small amount of solid remaining. The mixture became opaque rapidly. The mixture was placed on a mechanical oscillator set at a speed of 250 and 25° C. At the sampling time point of 1, 16, 24, 48, 72, 96, and 192 hours, an aliquot of the slurry was transferred to a centrifuge tube and separated at a speed of 16K rcf for 15 minutes. 200 μL of the clear supernatant was transferred to a 50-mL volumetric flask, 10 mL of water was added and mixed well before UV analysis.

[5] = Dynamic Vapor Sorption (DVS)
Experimental: The Dynamic Vapor Sorption (DVS) DVS data were collected on a VTI SGA-100 Vapor Sorption Analyzer. NaCl and PVP were used as calibration standards. The sample was not dried prior to analysis. Sorption and desorption data were collected over a range from 5 to 95% RH at 10% RH increments under a nitrogen purge. The equilibrium criterion used for analysis was less than 0.0100% weight change in 5 minutes with a maximum equilibration time of 3 hours. Data were not corrected for the initial moisture content of the samples.

C=C1C[C@@]23CCC4[C@](C)(C(=O)OC5OC(CO)C(O)C(OC6OC(CO)C(O)C(O)C6O)C5OC5OC(CO)C(O)C(O)C5O)CCC[C@@]4(C)[C@@H]2CCC1(OC1OC(CO)C(O)C(OC2OC(CO)C(O)C(O)C2O)C1OC1OC(CO)C(O)C(O)C1O)C3 (stereo partly drawn) [Amorphous (water process)]
Approximate Water Solubility [1]: >10 mg/mL

C=C1C[C@@]23CCC4[C@](C)(C(=O)OC5OC(CO)C(O)C(OC6OC(CO)C(O)C(O)C6O)C5OC5OC(CO)C(O)C(O)C5O)CCC[C@@]4(C)[C@@H]2CCC1(OC1OC(CO)C(O)C(OC2OC(CO)C(O)C(O)C2O)C1OC1OC(CO)C(O)C(O)C1O)C3 (stereo partly drawn) [Form A]
Approximate Water Solubility [1]: 1.4 mg/mL
approximate aqueous solubility [1]: 0.1 to about 0.14
water solubility ([2]; listed as Form A Rebaudioside X): 0.05%

C=C1C[C@@]23CC[C@H]4[C@@](C)(CCC[C@@]4(C)C(=O)O[C@@H]4O[C@H](CO)[C@@H](O)[C@H](O[C@@H]5O[C@H](CO)[C@@H](O)[C@H](O)[C@H]5O)[C@H]4O[C@@H]4O[C@H](CO)[C@@H](O)[C@H](O)[C@H]4O)[C@@H]2CC[C@]1(O[C@@H]1O[C@H](CO)[C@@H](O)[C@H](O[C@@H]2O[C@H](CO)[C@@H](O)[C@H](O)[C@H]2O)[C@H]1O[C@@H]1O[C@H](CO)[C@@H](O)[C@H](O)[C@H]1O)C3 [amorphous Rebaudioside X]
approximate aqueous solubility [1]: greater than 0.3%
approximate water solubility compared to Form A Rebaudioside X [1]: substantially increased
water solubility [2]: greater than 1%
Duration of Clarity of Sample ([3]; Sample 1: 250 mg/500 mL water, not filtered): >60 days
Duration of Clarity of Sample ([3]; Sample 2: 500 mg/500 mL water, not filtered): >60 days
Duration of Clarity of Sample ([3]; Sample 4: 1000 mg/500 mL water, not filtered): ^bMost Rebaudioside X dissolved quickly. However, a small amount of floating particles remained.
Duration of Clarity of Sample ([3]; Sample 6: 1750 mg/500 mL water, not filtered): ~0.12 days
Duration of Clarity of Sample ([3]; Sample 8: 1000 mg/100 mL water, filtered (0.22 μm membrane)): ~0.083 days
Average Sample Concentration ([4]; 250 mg in 10 mL water, 25° C.): Average Sample Concentration = 2.6 mg/mL
Original Sample Concentration ([4]; 250 mg in 10 mL water, 25° C., sampling time 1 hrs): 5.8 mg/mL
Original Sample Concentration ([4]; 250 mg in 10 mL water, 25° C., sampling time 16 hrs): 2.7 mg/mL
Original Sample Concentration ([4]; 250 mg in 10 mL water, 25° C., sampling time 24 hrs): 2.6 mg/mL
Original Sample Concentration ([4]; 250 mg in 10 mL water, 25° C., sampling time 48 hrs): 2.5 mg/mL
Original Sample Concentration ([4]; 250 mg in 10 mL water, 25° C., sampling time 72 hrs): 2.8 mg/mL
Original Sample Concentration ([4]; 250 mg in 10 mL water, 25° C., sampling time 96 hrs): 2.8 mg/mL
Original Sample Concentration ([4]; 250 mg in 10 mL water, 25° C., sampling time 192 hrs): 2.6 mg/mL
XRPD pattern of the solids recovered after solubility testing ([4]; after 8 days solubility testing in water): consistent with Form A, indicating conversion
solids recovered after DVS ([5]; XRPD after the DVS analysis): x-ray amorphous
weight loss upon desorption ([5]; desorption from 95% to 5% RH): 26.0 wt %
weight loss upon equilibration ([5]; equilibration at 5% RH): 3.1 wt %
weight gain on sorption ([5]; increasing the relative humidity from 5% to 95% RH): 26.3 wt %
hygroscopicity ([5]; judged from the large weight change): hygroscopic

C=C1C[C@@]23CCC4[C@](C)(C(=O)OC5OC(CO)C(O)C(OC6OC(CO)C(O)C(O)C6O)C5OC5OC(CO)C(O)C(O)C5O)CCC[C@@]4(C)[C@@H]2CCC1(OC1OC(CO)C(O)C(OC2OC(CO)C(O)C(O)C2O)C1OC1OC(CO)C(O)C(O)C1O)C3 (stereo partly drawn) [Amorphous (ethanol process)]
Approximate Water Solubility [1]: >10 mg/mL
